Among the data in patent publication US8551999B2, “Heterocyclic compound and pharmaceutical composition thereof” (Otsuka Pharmaceutical Co., Ltd., priority 2007, dated 2013) are melting point values, retold here.

Consider `Br.Br.COc1ccc(CN2CCN(C(=O)c3cc4cc(Oc5ccc(NC(=O)c6ccc(C(F)(F)F)cn6)cn5)ccc4n3C)CC2)cc1` [Example 230, 5-Trifluoromethylpyridine-2-carboxylic acid (6-{2-[4-(4-methoxy-benzyl)piperazine-1-carbonyl]-1-methyl-1H-indol-5-yloxy}pyridin-3-yl)amide dihydrobromide], for which the melting point lay within 241 to 243 °C. Compound `Br.COc1ccc(CN2CCN(C(=O)c3cc4cc(Oc5ccc(NC(=O)c6ccc(C(F)(F)F)cc6Cl)cn5)ccc4n3C)CC2)cc1` [Example 231, 2-Chloro-N-(6-{2-[4-(4-methoxybenzyl)piperazine-1-carbonyl]-1-methyl-1H-indol-5-yloxy}pyridin-3-yl)-4-trifluoromethylbenzamide hydrobromide] gave a melting point of 239 to 241 °C. The result for `COc1ccc(CNC2CCN(C(=O)c3cc4cc(Oc5ccc(NC(=O)c6ccc(C(F)(F)F)cc6)cn5)ccc4n3C)CC2)cc1` [Example 233, N-[6-(2-{4-[(4-Methoxyphenyl)methylamino]piperidine-1-carbonyl}-1-methyl-1H-indol-5-yloxy)pyridin-3-yl]-4-trifluoromethyl-benzamide] reads 139 to 142 °C; that for `CS(=O)(=O)O.CS(=O)(=O)O.Cc1c(Oc2ccc(NC(=O)c3ccc(C(F)(F)F)cc3)cn2)ccc2c1cc(C(=O)N1CCN(Cc3ccccn3)CC1)n2C` [Example 234, N-{6-[1,4-Dimethyl-2-(4-pyridin-2-ylmethylpiperazine-1-carbonyl)-1H-indol-5-yloxy]pyridin-3-yl}-4-trifluoromethylbenzamide bismethanesulfonate], 149 to 150 °C; that for `COc1ccc(CN2CCN(C(=O)c3cc4c(C)c(Oc5ccc(NC(=O)c6ccc(C(F)(F)F)cc6)cn5)ccc4n3C)CC2)cc1` [Example 235, N-(6-{2-[4-(4-Methoxybenzyl)piperazine-1-carbonyl]-1,4-dimethyl-1H-indol-5-yloxy}pyridin-3-yl)-4-trifluoromethylbenzamide], 219 to 221 °C. For `Cn1c(C(=O)N2CCN(Cc3ccccn3)CC2)cc2ccc(Oc3ccc(NC(=O)c4ccc(C(F)(F)F)cc4)cn3)cc21.O=C(O)C(=O)O.O=C(O)C(=O)O` [Example 236, N-{6-[1-Methyl-2-(4-pyridin-2-ylmethylpiperazine-1-carbonyl)-1H-indol-6-yloxy]pyridin-3-yl}-4-trifluoromethylbenzamide dioxalate], the melting point lay within 176 to 178 °C. The figure for `Cn1c(C(=O)N2CCN(C(=O)c3ccccn3)CC2)cc2cc(Oc3ccc(NC(=O)c4ccc(C(F)(F)F)cc4)cn3)ccc21` [Example 239, N-(6-{1-Methyl-2-[4-(pyridine-2-carbonyl)piperazine-1-carbonyl]-1H-indol-5-yloxy}pyridin-3-yl)-4-trifluoromethylbenzamide] is 162 to 164 °C; for `COc1ccc(C(=O)N2CCN(C(=O)c3cc4cc(Oc5ccc(NC(=O)c6ccc(C(F)(F)F)cc6)cn5)ccc4n3C)CC2)cc1` [Example 240, N-(6-{2-[4-(4-Methoxybenzoyl)piperazine-1-carbonyl]-1-methyl-1H-indol-5-yloxy}pyridin-3-yl)-4-trifluoromethylbenzamide] it is 195 to 196 °C. `COc1ccc(C(=O)N2CCN(C(=O)c3cc4cc(Oc5ccc(N(C)C(=O)c6ccc(C(F)(F)F)cc6)cn5)ccc4n3C)CC2)cc1` [Example 241, N-(6-{2-[4-(4-Methoxybenzoyl)piperazine-1-carbonyl]-1-methyl-1H-indol-5-yloxy}pyridin-3-yl)-N-methyl-4-trifluoromethylbenzamide] gave a melting point of 126 to 128 °C.

For `CN(C(=O)c1ccc(C(F)(F)F)cc1)c1ccc(Oc2ccc3c(c2)cc(C(=O)N2CCN(C(=O)c4ccc(C#N)cc4)CC2)n3C)nc1` [Example 242, N-(6-{2-[4-(4-Cyanobenzoyl)piperazine-1-carbonyl]-1-methyl-1H-indol-5-yloxy}pyridin-3-yl)-N-methyl-4-trifluoromethylbenzamide], the melting point lay within 135 to 137 °C. On to `Cn1c(C(=O)N2CCN(Cc3ccccn3)CC2)cc2cccc(Oc3ccc(NC(=O)c4ccc(C(F)(F)F)cc4)cn3)c21.O=C(O)C(=O)O.O=C(O)C(=O)O` [Example 243, N-{6-[1-Methyl-2-(4-pyridin-2-ylmethylpiperazine-1-carbonyl)-1H-indol-7-yloxy]pyridin-3-yl}-4-trifluoromethylbenzamide dioxalate], for which the melting point was in the range of 121 to 123 °C. In turn, `Cn1c(C(=O)N2CCN(Cc3ccc(C#N)cc3)CC2)cc2cccc(Oc3ccc(NC(=O)c4ccc(C(F)(F)F)cc4)cn3)c21` [Example 245, N-(6-{2-[4-(4-Cyanobenzyl)piperazine-1-carbonyl]-1-methyl-1H-indol-7-yloxy}pyridin-3-yl)-4-trifluoromethylbenzamide] showed a melting point of 228 to 229 °C.

The compound `Br.Cn1c(C(=O)N2CCN(Cc3ccccn3)CC2)cc2c(Oc3ccc(NC(=O)c4ccc(C(F)(F)F)cc4)cn3)cccc21` [Example 246, N-{6-[1-Methyl-2-(4-pyridin-2-ylmethylpiperazine-1-carbonyl)-1H-indol-4-yloxy]pyridin-3-yl}-4-trifluoromethylbenzamide hydrobromide] gave a melting point of 186 to 189 °C. As to `Br.Cn1c(C(=O)N2CCN(Cc3ccc(OC(F)(F)C(F)F)cc3)CC2)cc2ccc(Oc3ccc(NC(=O)c4ccc(C(F)(F)F)cc4)cn3)cc21` [Example 250, N-[6-(1-Methyl-2-{4-[4-(1,1,2,2-tetrafluoroethoxy)benzyl]-piperazine-1-carbonyl}-1H-indol-6-yloxy)pyridin-3-yl]-4-tri-fluoromethylbenzamide hydrobromide], the melting point was 279 to 282 °C (dec.).

Consider `Br.CC(C)Oc1ccc(CN2CCN(C(=O)c3cc4ccc(Oc5ccc(NC(=O)c6ccc(OC(F)(F)F)cc6)cn5)cc4n3C)CC2)cc1` [Example 251, N-(6-{2-[4-(4-Isopropoxybenzyl)piperazine-1-carbonyl]-1-methyl-1H-indol-6-yloxy}pyridin-3-yl)-4-trifluoromethoxybenzamide hydrobromide], for which the melting point is 265 to 267 °C (dec.). `Br.Cn1c(C(=O)N2CCN(Cc3ccc(OC(F)F)cc3)CC2)cc2ccc(Oc3ccc(NC(=O)c4ccc(Cl)c(Cl)c4)cn3)cc21` [Example 254, 3,4-Dichloro-N-(6-{2-[4-(4-difluoromethoxybenzyl)piperazine-1-carbonyl]-1-methyl-1H-indol-6-yloxy}pyridin-3-yl)benzamide hydrobromide] showed a melting point of 249 to 253.7 °C. As for `Br.CC(C)Oc1ccc(CN2CCN(C(=O)c3cc4ccc(Oc5ccc(NC(=O)c6ccc(Cl)c(Cl)c6)cn5)cc4n3C)CC2)cc1` [Example 255, 3,4-Dichloro-N-(6-{2-[4-(4-isopropoxybenzyl)piperazine-1-carbonyl]-1-methyl-1H-indol-6-yloxy}pyridin-3-yl)benzamide hydrobromide], the melting point was 239.7 to 243.5 °C. The figure for `Br.CCCOc1ccc(CN2CCN(C(=O)c3cc4ccc(Oc5ccc(NC(=O)c6ccc(Cl)c(Cl)c6)cn5)cc4n3C)CC2)cc1` [Example 256, 3,4-Dichloro-N-(6-{1-methyl-2-[4-(4-propoxybenzyl)piperazine-1-carbonyl]-1H-indol-6-yloxy}pyridin-3-yl)benzamide hydrobromide] is 239.2 to 240.4 °C; for `Br.Cn1c(C(=O)N2CCN(Cc3ccc4c(c3)OCO4)CC2)cc2ccc(Oc3ccc(NC(=O)c4ccc(Cl)c(Cl)c4)cn3)cc21` [Example 257, N-{6-[2-(4-Benzo[1,3]dioxol-5-ylmethylpiperazine-1-carbonyl)-1-methyl-1H-indol-6-yloxy]pyridin-3-yl}-3,4-dichlorobenzamide hydrobromide] it is 241.3 to 243.9 °C; for `Br.COc1ccc(CN2CCN(C(=O)c3cc4ccc(Oc5ccc(NC(=O)c6ccc(Cl)c(Cl)c6)cn5)cc4n3C)CC2)cc1` [Example 258, 3,4-Dichloro-N-(6-{2-[4-(4-methoxybenzyl)piperazine-1-carbonyl]-1-methyl-1H-indol-6-yloxy}pyridin-3-yl)benzamide hydrobromide] it is 234.6 to 237.2 °C. The result for `Br.COCc1ccc(CN2CCN(C(=O)c3cc4ccc(Oc5ccc(NC(=O)c6ccc(Cl)c(Cl)c6)cn5)cc4n3C)CC2)cc1` [Example 259, 3,4-Dichloro-N-(6-{2-[4-(4-methoxymethylbenzyl)piperazine-1-carbonyl]-1-methyl-1H-indol-6-yloxy}pyridin-3-yl)benzamide hydrobromide] reads 243.6 to 247.7 °C.

`Br.CC(C)Cc1ccc(CN2CCN(C(=O)c3cc4ccc(Oc5ccc(NC(=O)c6ccc(Cl)c(Cl)c6)cn5)cc4n3C)CC2)cc1` [Example 260, 3,4-Dichloro-N-(6-{2-[4-(4-isobutylbenzyl)piperazine-1-carbonyl]-1-methyl-1H-indol-6-yloxy}pyridin-3-yl)benzamide hydrobromide] had a melting point of 255.8 to 257.4 °C.

`Br.Cn1c(C(=O)N2CCN(Cc3ccc(C(F)(F)F)cc3)CC2)cc2ccc(Oc3ccc(NC(=O)c4ccc(Cl)c(Cl)c4)cn3)cc21` [Example 262, 3,4-Dichloro-N-(6-{1-methyl-2-[4-(4-trifluoromethylbenzyl)-piperazine-1-carbonyl]-1H-indol-6-yloxy}pyridin-3-yl)benzamide hydrobromide] gave a melting point of 259.4 to 260.7 °C. The result for `Br.Cn1c(C(=O)N2CCN(Cc3ccc(C#N)cc3)CC2)cc2ccc(Oc3ccc(NC(=O)c4ccc(Cl)c(Cl)c4)cn3)cc21` [Example 263, 3,4-Dichloro-N-(6-{2-[4-(4-cyanobenzyl)piperazine-1-carbonyl]-1-methyl-1H-indol-6-yloxy}pyridin-3-yl)benzamide hydrobromide] reads 263.9 to 267.4 °C; that for `Br.Cn1c(C(=O)N2CCN(Cc3ccc(OC(F)(F)F)cc3)CC2)cc2ccc(Oc3ccc(NC(=O)c4ccc(Cl)c(Cl)c4)cn3)cc21` [Example 264, 3,4-Dichloro-N-(6-{1-methyl-2-[4-(4-trifluoromethoxybenzyl)-piperazine-1-carbonyl]-1H-indol-6-yloxy}pyridin-3-yl)benzamide hydrobromide], 261.6 to 264.7 °C.
